Measurements as given in publication PMC12889028, “Discovery and biological evaluation of novel N-aryl-N′-methylbenzodrazides against Schistosoma japonicum in vitro and in vivo” (Microbiology Spectrum, 2025).
Like-named read-outs stand apart in the source and are kept apart here.

System: adult worms of S. japonicum (Chinese strain)
Assay: microbe, parasite or virus in culture
Conditions: for Mortality (%) 72 h: 100 μM, adult worms in vitro; for mortality at 100 µM: Schistosoma japonicum
Procedure: S. japonicum cercariae (Chinese strain) were acquired from infected Oncomelania hupensis snails (Wuxi Insect Vector Biology Co., Ltd., China) ([28]). ICR mice (6–8 weeks, 22–25 g; Hunan SJA Laboratory Animal Co., Ltd., China) were percutaneously infected via abdominal exposure to 60 ± 5 cercariae. Adult schistosomes were perfused from the hepatic portal system at 35 dpi using a modified Duvall and DeWitt method ([29]). Animals were housed under controlled conditions (22°C ± 1°C, 12 h light/dark cycle) with ad libitum access to feed and water.
Adult S. japonicum worms isolated from ICR mice were maintained in sterile culture medium (2.0 mL) comprising 77% RPMI 1640 (Lanzhou Bailing Biotech Co., Ltd.; pH 7.5, HEPES-buffered), 20% heat-inactivated fetal bovine serum (Lanzhou Minhai Bio-Engineering Co., Ltd.), and 3% penicillin-streptomycin (100×; 10,000 U/mL penicillin, 10,000 μg/mL streptomycin; New Cell & Molecular Biotech Co., Ltd., China). Incubation was performed at 37°C under 5% CO2. Test compounds were dissolved in DMSO as 0.1 M stock solutions; 2.0 μL aliquots were added to worm-containing media (final concentration: 100 μM in 0.1% DMSO). Negative controls received equivalent volumes of vehicle (0.1% DMSO in RPMI 1640). Parasite viability (motor activity, tegumental integrity, survival) was assessed every 12 h for 72 h using an Olympus CKX53 inverted microscope (n ≥ 3 independent replicates).

[1] = 24 h, read-out: Mortality (%) 24 h, 100 μM, 24 h, adult worms in vitro
[2] = 36 h, read-out: Mortality (%) 36 h, 100 μM, 36 h, adult worms in vitro
[3] = 48 h, read-out: Mortality (%) 48 h, 100 μM, 48 h, adult worms in vitro
[4] = 72 h, read-out: Mortality (%) 72 h, 100 μM, 72 h, adult worms in vitro

SMILES | Mortality (%) 72 h (72 h) [%] | mortality at 100 µM [1] [%] | mortality at 100 µM [2] [%] | mortality at 100 µM [3] [%] | mortality at 100 µM [4] [%]
Cc1ccc(N(C)NC(=O)c2ccc(Cl)c(Cl)c2)cc1 [Compound 1] | 100 | 0 | 5 | 60 | > 80
COc1ccc(N(C)NC(=O)c2ccc(Cl)c(Cl)c2)cc1 [Compound 2] | – | 0 | 0 | 0 | 0
CN(NC(=O)c1ccc(Cl)c(Cl)c1)c1ccc(F)cc1 [Compound 3] | 85 | 0 | 0 | 45 | > 80
CN(NC(=O)c1ccc(Cl)c(Cl)c1)c1ccc(Cl)cc1 [Compound 4] | – | 0 | 0 | 0 | 10
CN(NC(=O)c1ccc(Cl)c(Cl)c1)c1ccc(C#N)cc1 [Compound 6] | – | 0 | 0 | 0 | 20
Cc1cccc(N(C)NC(=O)c2ccc(Cl)c(Cl)c2)c1 [Compound 7] | – | 0 | 0 | 0 | 0
CN(NC(=O)c1ccc(Cl)c(Cl)c1)c1cccc(Cl)c1 [Compound 8] | 100 | 0 | 0 | 40 | > 80
CN(NC(=O)c1ccc(Cl)c(Cl)c1)c1cccc(Br)c1 [Compound 9] | 85 | 0 | 0 | 15 | > 80
CN(NC(=O)c1ccc(Cl)c(Cl)c1)c1ccccc1F [Compound 11] | – | 0 | 0 | 0 | 0
CN(NC(=O)c1ccc(Cl)c(Cl)c1)c1ccccc1Cl [Compound 12] | – | 0 | 0 | 0 | 0
CN(NC(=O)c1ccc(Cl)c(Cl)c1)c1ccc(Cl)c(Cl)c1 [Compound 13] | 100 | 0 | 15 | 50 | > 80
CN(NC(=O)c1ccc(Cl)c(Cl)c1)c1ccc(Cl)c(C(F)(F)F)c1 [Compound 14] | 95 | 15 | 25 | 55 | > 80
Cc1ccc(C(=O)NN(C)c2ccc(Cl)c(Cl)c2)cc1 [Compound 15] | – | 0 | 20 | 35 | 65
COc1ccc(C(=O)NN(C)c2ccc(Cl)c(Cl)c2)cc1 [Compound 16] | 100 | 0 | 0 | 65 | > 90
CN(NC(=O)c1ccc(Cl)cc1)c1ccc(Cl)c(Cl)c1 [Compound 17] | – | 0 | 5 | 25 | 70
CN(NC(=O)c1ccc(C(F)(F)F)cc1)c1ccc(Cl)c(Cl)c1 [Compound 19] | – | 0 | 0 | 35 | 80
CN(NC(=O)c1ccc(C#N)cc1)c1ccc(Cl)c(Cl)c1 [Compound 20] | 100 | 0 | 0 | 60 | > 90
CN(NC(=O)c1ccc([N+](=O)[O-])cc1)c1ccc(Cl)c(Cl)c1 [Compound 21] | – | 0 | 0 | 30 | 65
Cc1cccc(C(=O)NN(C)c2ccc(Cl)c(Cl)c2)c1 [Compound 22] | – | 0 | 0 | 0 | 70
